Measurements published in publication PMC8307938, “The Lysozyme Inhibitor Thionine Acetate Is Also an Inhibitor of the Soluble Lytic Transglycosylase Slt35 from Escherichia coli” (Molecules, 2021).

Biological target: T1, Slt35 (Escherichia coli, UniProt P41052)
T1 construct: gene mltB; N-terminal His-tag
T1 sequence (P41052 19-361): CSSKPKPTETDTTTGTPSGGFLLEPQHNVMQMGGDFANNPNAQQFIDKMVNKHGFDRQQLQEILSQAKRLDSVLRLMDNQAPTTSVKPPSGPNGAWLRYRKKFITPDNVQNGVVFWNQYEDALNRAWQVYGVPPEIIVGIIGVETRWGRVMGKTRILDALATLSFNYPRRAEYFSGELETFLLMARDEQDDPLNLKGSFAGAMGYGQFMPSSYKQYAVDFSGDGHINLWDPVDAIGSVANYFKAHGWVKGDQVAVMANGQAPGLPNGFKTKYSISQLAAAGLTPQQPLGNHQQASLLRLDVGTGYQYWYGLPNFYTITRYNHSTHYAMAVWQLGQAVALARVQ
Assay: saturation transfer difference NMR ([…] compound, […] Slt35; weak; no inhibition up to […])
Format: binding

`OC[C@H]1NC[C@H](O)[C@@H](O)[C@@H]1O` [1-deoxynojirimycin] was tested, and the “saturation transfer difference NMR (5 mM compound, 20 μM Slt35); weak; no inhibit” value was “weak enhancement of signals from 1-deoxynojirimycin on selective excitation of Slt35 (Figure S1), suggesting that this compound is capable of binding”.
